Data from paper PMC5146859, “Phase 1/2 study of pacritinib, a next generation JAK2/FLT3 inhibitor, in myelofibrosis or other myeloid malignancies” (Journal of Hematology & Oncology, 2016).
“Also recorded” adds a separate entry of the source.

Tested on: patients with advanced myeloid malignancies
Assay: Phase 1 safety: adverse events (NCIC-CTCAE version 3.0)
Format: in vivo, human
Method: At screening/baseline, patients underwent a medical history, physical examination, vital sign assessment, ECOG PS assessment, electrocardiogram, and assessment of hematologic parameters and blood chemistry. Hematology/blood chemistry, physical examinations, and vital sign assessments were performed throughout treatment. Toxicity was assessed using the National Cancer Institute Common Terminology Criteria for Adverse Events (NCIC-CTCAE), version 3.0, with relationship to treatment assigned by the investigator and were recorded from the first dose of pacritinib until 30 days after the last dose. Bone marrow biopsy and/or aspirate samples were drawn at baseline, on day 1 of cycle 4 and cycle 10, as clinically indicated, and at the termination visit. Disease response and progression were determined using the relevant International Working Group (IWG) criteria.
The efficacy-evaluable population included those patients with a baseline and corresponding follow-up value. The safety population included all enrolled patients who received ≥1 dose of pacritinib.

[1] = phase 1, 500 mg QD cohort of seven
[2] = phase 1, all patients n = 43, Grade 1/2
[3] = phase 1, all patients n = 43, Grade 3/4

C1=C/COCc2cc(ccc2OCCN2CCCC2)Nc2nccc(n2)-c2cccc(c2)COC/1 [pacritinib, 11-(2-pyrrolidin-1-yl-ethoxy)-14,19-dioxa-5,7,26-triaza-tetracyclo[19.3.1.1(2,6). 1(8,12)]heptacosa-1(25),2(26),3,5,8,10,12(27),16,21,23-decaene]
Treatment-emergent AE: Petechiae (phase 1, 400 mg, n = 6): 0 n (%) | Treatment-emergent AE: Pyrexia (phase 1, 400 mg, n = 6): 2 (33.3) n (%) | Treatment-emergent AE: Skin lesion (phase 1, 400 mg, n = 6): 0 n (%) | Treatment-emergent AE: Thrombocytopenia (phase 1, 400 mg, n = 6): 2 (33.3) n (%) | Treatment-emergent AE: Upper respiratory tract infection (phase 1, 400 mg, n = 6): 0 n (%) | Treatment-emergent AE: Vomiting (phase 1, 400 mg, n = 6): 3 (50.0) n (%) | Patients who discontinued treatment due to AEs [1]: two | Patients who experienced a serious AE [1]: three | Patients who required dose interruptions [1]: three | Patients who required dose reductions [1]: three | Treatment-emergent AE: Abdominal distension (phase 1, 500 mg, n = 7): 1 (14.3) n (%) | Treatment-emergent AE: Abdominal pain (phase 1, 500 mg, n = 7): 0 n (%) | Treatment-emergent AE: Anemia (phase 1, 500 mg, n = 7): 2 (28.6) n (%) | Treatment-emergent AE: Any AE (phase 1, 500 mg, n = 7): 7 (100.0) n (%) | Treatment-emergent AE: Asthenia (phase 1, 500 mg, n = 7): 1 (14.3) n (%) | Treatment-emergent AE: Back pain (phase 1, 500 mg, n = 7): 1 (14.3) n (%) | Treatment-emergent AE: Cardiac murmur (phase 1, 500 mg, n = 7): 1 (14.3) n (%) | Treatment-emergent AE: Chills (phase 1, 500 mg, n = 7): 1 (14.3) n (%) | Treatment-emergent AE: Constipation (phase 1, 500 mg, n = 7): 1 (14.3) n (%) | Treatment-emergent AE: Cough (phase 1, 500 mg, n = 7): 0 n (%) | Treatment-emergent AE: Decreased appetite (phase 1, 500 mg, n = 7): 0 n (%) | Treatment-emergent AE: Dehydration (phase 1, 500 mg, n = 7): 1 (14.3) n (%) | Treatment-emergent AE: Diarrhea (phase 1, 500 mg, n = 7): 7 (100.0) n (%) | Treatment-emergent AE: Dizziness (phase 1, 500 mg, n = 7): 1 (14.3) n (%) | Treatment-emergent AE: Dyspnea (phase 1, 500 mg, n = 7): 1 (14.3) n (%) | Treatment-emergent AE: Edema peripheral (phase 1, 500 mg, n = 7): 2 (28.6) n (%) | Treatment-emergent AE: Epistaxis (phase 1, 500 mg, n = 7): 0 n (%) | Treatment-emergent AE: Fatigue (phase 1, 500 mg, n = 7): 3 (42.9) n (%) | Treatment-emergent AE: Hyperbilirubinemia (phase 1, 500 mg, n = 7): 0 n (%) | Treatment-emergent AE: Hyperuricemia (phase 1, 500 mg, n = 7): 1 (14.3) n (%) | Treatment-emergent AE: Insomnia (phase 1, 500 mg, n = 7): 1 (14.3) n (%) | Treatment-emergent AE: Nausea (phase 1, 500 mg, n = 7): 5 (71.4) n (%) | Treatment-emergent AE: Neutropenia (phase 1, 500 mg, n = 7): 0 n (%) | Treatment-emergent AE: Night sweats (phase 1, 500 mg, n = 7): 1 (14.3) n (%) | Treatment-emergent AE: Pain in extremity (phase 1, 500 mg, n = 7): 0 n (%) | Treatment-emergent AE: Petechiae (phase 1, 500 mg, n = 7): 1 (14.3) n (%) | Treatment-emergent AE: Pyrexia (phase 1, 500 mg, n = 7): 2 (28.6) n (%) | Treatment-emergent AE: Skin lesion (phase 1, 500 mg, n = 7): 0 n (%) | Treatment-emergent AE: Thrombocytopenia (phase 1, 500 mg, n = 7): 1 (14.3) n (%) | Treatment-emergent AE: Upper respiratory tract infection (phase 1, 500 mg, n = 7): 0 n (%) | Treatment-emergent AE: Vomiting (phase 1, 500 mg, n = 7): 3 (42.9) n (%) | Treatment-emergent AE: Abdominal distension (phase 1, 600 mg, n = 6): 2 (33.3) n (%) | Treatment-emergent AE: Abdominal pain (phase 1, 600 mg, n = 6): 1 (16.7) n (%) | Treatment-emergent AE: Anemia (phase 1, 600 mg, n = 6): 3 (50.0) n (%) | Treatment-emergent AE: Any AE (phase 1, 600 mg, n = 6): 6 (100.0) n (%) | Treatment-emergent AE: Asthenia (phase 1, 600 mg, n = 6): 2 (33.3) n (%) | Treatment-emergent AE: Back pain (phase 1, 600 mg, n = 6): 0 n (%) | Treatment-emergent AE: Cardiac murmur (phase 1, 600 mg, n = 6): 2 (33.3) n (%) | Treatment-emergent AE: Chills (phase 1, 600 mg, n = 6): 1 (16.7) n (%) | Treatment-emergent AE: Constipation (phase 1, 600 mg, n = 6): 1 (16.7) n (%) | Treatment-emergent AE: Cough (phase 1, 600 mg, n = 6): 0 n (%) | Treatment-emergent AE: Decreased appetite (phase 1, 600 mg, n = 6): 1 (16.7) n (%) | Treatment-emergent AE: Dehydration (phase 1, 600 mg, n = 6): 1 (16.7) n (%) | Treatment-emergent AE: Diarrhea (phase 1, 600 mg, n = 6): 6 (100.0) n (%) | Treatment-emergent AE: Dizziness (phase 1, 600 mg, n = 6): 1 (16.7) n (%) | Treatment-emergent AE: Dyspnea (phase 1, 600 mg, n = 6): 3 (50.0) n (%) | Treatment-emergent AE: Edema peripheral (phase 1, 600 mg, n = 6): 3 (50.0) n (%) | Treatment-emergent AE: Epistaxis (phase 1, 600 mg, n = 6): 1 (16.7) n (%) | Treatment-emergent AE: Fatigue (phase 1, 600 mg, n = 6): 1 (16.7) n (%) | Treatment-emergent AE: Hyperbilirubinemia (phase 1, 600 mg, n = 6): 0 n (%) | Treatment-emergent AE: Hyperuricemia (phase 1, 600 mg, n = 6): 3 (50.0) n (%) | Treatment-emergent AE: Insomnia (phase 1, 600 mg, n = 6): 0 n (%) | Treatment-emergent AE: Nausea (phase 1, 600 mg, n = 6): 4 (66.7) n (%) | Treatment-emergent AE: Neutropenia (phase 1, 600 mg, n = 6): 0 n (%) | Treatment-emergent AE: Night sweats (phase 1, 600 mg, n = 6): 1 (16.7) n (%) | Treatment-emergent AE: Pain in extremity (phase 1, 600 mg, n = 6): 1 (16.7) n (%) | Treatment-emergent AE: Petechiae (phase 1, 600 mg, n = 6): 0 n (%) | Treatment-emergent AE: Pyrexia (phase 1, 600 mg, n = 6): 2 (33.3) n (%) | Treatment-emergent AE: Skin lesion (phase 1, 600 mg, n = 6): 0 n (%) | Treatment-emergent AE: Thrombocytopenia (phase 1, 600 mg, n = 6): 1 (16.7) n (%) | Treatment-emergent AE: Upper respiratory tract infection (phase 1, 600 mg, n = 6): 0 n (%) | Treatment-emergent AE: Vomiting (phase 1, 600 mg, n = 6): 3 (50.0) n (%) | Treatment-emergent AE: Abdominal distension [2]: 9 (20.9) n (%) | Treatment-emergent AE: Abdominal pain [2]: 6 (14.0) n (%) | Treatment-emergent AE: Anemia [2]: 3 (7.0) n (%) | Treatment-emergent AE: Any AE [2]: 8 (18.6) n (%) | Treatment-emergent AE: Asthenia [2]: 6 (14.0) n (%) | Treatment-emergent AE: Back pain [2]: 7 (16.3) n (%) | Treatment-emergent AE: Cardiac murmur [2]: 6 (14.0) n (%) | Treatment-emergent AE: Chills [2]: 5 (11.6) n (%) | Treatment-emergent AE: Constipation [2]: 11 (25.6) n (%) | Treatment-emergent AE: Cough [2]: 5 (11.6) n (%) | Treatment-emergent AE: Decreased appetite [2]: 8 (18.6) n (%) | Treatment-emergent AE: Dehydration [2]: 5 (11.6) n (%) | Treatment-emergent AE: Diarrhea [2]: 28 (65.1) n (%) | Treatment-emergent AE: Dizziness [2]: 6 (14.0) n (%) | Treatment-emergent AE: Dyspnea [2]: 9 (20.9) n (%) | Treatment-emergent AE: Edema peripheral [2]: 10 (23.3) n (%) | Treatment-emergent AE: Epistaxis [2]: 7 (16.3) n (%) | Treatment-emergent AE: Fatigue [2]: 9 (20.9) n (%) | Treatment-emergent AE: Hyperbilirubinemia [2]: 5 (11.6) n (%) | Treatment-emergent AE: Hyperuricemia [2]: 5 (11.6) n (%) | Treatment-emergent AE: Insomnia [2]: 7 (16.3) n (%) | Treatment-emergent AE: Nausea [2]: 19 (44.2) n (%) | Treatment-emergent AE: Neutropenia [2]: 2 (4.7) n (%) | Treatment-emergent AE: Night sweats [2]: 6 (14.0) n (%) | Treatment-emergent AE: Pain in extremity [2]: 5 (11.6) n (%) | Treatment-emergent AE: Petechiae [2]: 5 (11.6) n (%) | Treatment-emergent AE: Pyrexia [2]: 9 (20.9) n (%) | Treatment-emergent AE: Skin lesion [2]: 5 (11.6) n (%) | Treatment-emergent AE: Thrombocytopenia [2]: 2 (4.7) n (%) | Treatment-emergent AE: Upper respiratory tract infection [2]: 5 (11.6) n (%) | Treatment-emergent AE: Vomiting [2]: 16 (37.2) n (%) | Treatment-emergent AE: Abdominal distension [3]: 0 n (%) | Treatment-emergent AE: Abdominal pain [3]: 1 (2.3) n (%) | Treatment-emergent AE: Anemia [3]: 7 (16.3) n (%) | Treatment-emergent AE: Any AE [3]: 35 (81.4) n (%) | Treatment-emergent AE: Asthenia [3]: 2 (4.7) n (%) | Treatment-emergent AE: Back pain [3]: 0 n (%) | Treatment-emergent AE: Cardiac murmur [3]: 0 n (%) | Treatment-emergent AE: Chills [3]: 0 n (%) | Treatment-emergent AE: Constipation [3]: 0 n (%) | Treatment-emergent AE: Cough [3]: 0 n (%) | Treatment-emergent AE: Decreased appetite [3]: 0 n (%) | Treatment-emergent AE: Dehydration [3]: 0 n (%) | Treatment-emergent AE: Diarrhea [3]: 3 (7.0) n (%) | Treatment-emergent AE: Dizziness [3]: 0 n (%) | Treatment-emergent AE: Dyspnea [3]: 0 n (%) | Treatment-emergent AE: Edema peripheral [3]: 2 (4.7) n (%) | Treatment-emergent AE: Epistaxis [3]: 1 (2.3) n (%) | Treatment-emergent AE: Fatigue [3]: 4 (9.3) n (%) | Treatment-emergent AE: Hyperbilirubinemia [3]: 0 n (%) | Treatment-emergent AE: Hyperuricemia [3]: 1 (2.3) n (%) | Treatment-emergent AE: Insomnia [3]: 0 n (%) | Treatment-emergent AE: Nausea [3]: 0 n (%) | Treatment-emergent AE: Neutropenia [3]: 3 (7.0) n (%) | Treatment-emergent AE: Night sweats [3]: 0 n (%) | Treatment-emergent AE: Pain in extremity [3]: 0 n (%) | Treatment-emergent AE: Petechiae [3]: 0 n (%) | Treatment-emergent AE: Pyrexia [3]: 3 (7.0) n (%) | Treatment-emergent AE: Skin lesion [3]: 0 n (%) | Treatment-emergent AE: Thrombocytopenia [3]: 6 (14.0) n (%) | Treatment-emergent AE: Upper respiratory tract infection [3]: 0 n (%) | Treatment-emergent AE: Vomiting [3]: 0 n (%) | SAE Management/Outcome (phase 1, listing per patient and SAE): Fatal; also recorded: Dose not changed; recovered/resolved with sequelae; also recorded: Drug withdrawn; recovered/resolved with sequelae; also recorded: Drug interrupted; recovered/resolved with sequelae | Deaths attributed to AEs (phase 1, n = 43): Seven | Discontinuations because of an AE considered treatment related (phase 1, n = 43): three | Dose interruptions due to AEs (phase 1, n = 43): 18 patients | Dose reductions due to AEs (phase 1, n = 43): 9 patients | Grade 3/4 anemia (phase 1, n = 43): 16.3% | Grade 3/4 thrombocytopenia (phase 1, n = 43): 14.0% | Grade 3 treatment-related AEs (phase 1, n = 43): 20.9% | Grade 4 treatment-related AEs (phase 1, n = 43): 4.7% | Patients who died during study participation (phase 1, n = 43): 32.6% | Patients who discontinued pacritinib because of an AE (phase 1, n = 43): Eight | Patients with SAEs (phase 1, n = 43): 44.2% | Patients with SAEs considered treatment related (phase 1, n = 43): 9.3% | Treatment-related AE: diarrhea (phase 1, n = 43): 65.1% | Treatment-related AE: nausea (phase 1, n = 43): 34.9% | Treatment-related AE: thrombocytopenia (phase 1, n = 43): 11.6% | Treatment-related AE: vomiting (phase 1, n = 43): 23.3%
